Assay [1] deals with T1, Integrin alpha-L (Homo sapiens, UniProt P20701).
T1 sequence (P20701 whole entry): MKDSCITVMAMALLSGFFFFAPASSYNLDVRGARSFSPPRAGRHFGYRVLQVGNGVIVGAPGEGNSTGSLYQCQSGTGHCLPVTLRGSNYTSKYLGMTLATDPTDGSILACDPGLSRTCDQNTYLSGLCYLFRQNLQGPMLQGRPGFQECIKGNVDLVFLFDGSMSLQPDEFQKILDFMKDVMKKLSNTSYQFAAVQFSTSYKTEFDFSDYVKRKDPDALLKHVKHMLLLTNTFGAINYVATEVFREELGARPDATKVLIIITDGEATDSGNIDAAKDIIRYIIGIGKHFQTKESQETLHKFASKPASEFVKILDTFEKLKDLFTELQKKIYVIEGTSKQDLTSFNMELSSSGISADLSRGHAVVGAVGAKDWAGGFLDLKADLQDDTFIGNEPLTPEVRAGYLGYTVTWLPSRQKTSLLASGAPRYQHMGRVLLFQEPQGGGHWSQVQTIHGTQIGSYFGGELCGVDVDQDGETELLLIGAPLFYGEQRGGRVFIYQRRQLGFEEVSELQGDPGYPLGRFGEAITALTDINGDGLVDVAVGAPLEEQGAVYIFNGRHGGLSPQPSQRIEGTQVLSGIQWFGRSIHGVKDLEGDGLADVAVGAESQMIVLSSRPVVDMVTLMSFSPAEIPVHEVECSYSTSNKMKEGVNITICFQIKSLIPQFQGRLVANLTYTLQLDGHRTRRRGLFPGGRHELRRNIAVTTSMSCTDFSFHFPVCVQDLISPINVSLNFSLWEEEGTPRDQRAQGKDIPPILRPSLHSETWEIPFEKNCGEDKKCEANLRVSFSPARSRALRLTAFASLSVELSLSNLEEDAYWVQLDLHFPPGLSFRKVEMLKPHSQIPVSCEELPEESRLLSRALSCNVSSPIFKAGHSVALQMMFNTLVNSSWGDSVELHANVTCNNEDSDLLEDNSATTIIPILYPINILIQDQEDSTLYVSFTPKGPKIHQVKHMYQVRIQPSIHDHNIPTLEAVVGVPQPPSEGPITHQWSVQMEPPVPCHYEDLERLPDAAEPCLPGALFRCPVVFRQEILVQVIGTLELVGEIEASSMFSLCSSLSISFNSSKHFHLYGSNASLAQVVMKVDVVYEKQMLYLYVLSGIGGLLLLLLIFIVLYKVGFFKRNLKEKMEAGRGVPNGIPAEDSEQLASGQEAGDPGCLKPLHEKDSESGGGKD

The target of assay [2] is T1, Integrin alpha-L. As to the kind of experiment: Inhibition of intercellular adhesion molecule-1 (ICAM-1) binding to recombinant LFA-1, range(130-170).
Assay [3] has as its target T2, Intercellular adhesion molecule (ICAM-1), Integrin alpha-L/beta-2 (Homo sapiens, UniProt P05107+P20701). As to the kind of experiment: Inhibition of LFA-1 mediated JY-8 cell adhesion to ICAM-1, range (6-100). In kind it is functional, cell-based.
In assay [4] the target is T1, Integrin alpha-L. Nature of the assay: Inhibition of intercellular adhesion molecule-1 (ICAM-1) binding to recombinant LFA-1, range(5-5).
Assay [5] addresses T2, Intercellular adhesion molecule (ICAM-1), Integrin alpha-L/beta-2. Nature of the assay: Inhibition of LFA-1 mediated JY-8 cell adhesion to ICAM-1, range(3-10). In kind it is functional, cell-based.
The target in assay [6] is T1, Integrin alpha-L. This is another data set of the same source.
The target in assay [7] is T2, Intercellular adhesion molecule (ICAM-1), Integrin alpha-L/beta-2.

The values that follow come from ChEMBL document CHEMBL1134304, “Discovery of novel p-arylthio cinnamides as antagonists of leukocyte function-associated antigen-1/intercellular adhesion molecule-1 interaction. 4. Structure-activity relationship of substituents on the benzene ring of the cinnamide” (J Med Chem, 2001).

What is called IC50 is the concentration that gives 50% inhibition.

T2 sequence (P05362 whole entry, one chain of several, further chain): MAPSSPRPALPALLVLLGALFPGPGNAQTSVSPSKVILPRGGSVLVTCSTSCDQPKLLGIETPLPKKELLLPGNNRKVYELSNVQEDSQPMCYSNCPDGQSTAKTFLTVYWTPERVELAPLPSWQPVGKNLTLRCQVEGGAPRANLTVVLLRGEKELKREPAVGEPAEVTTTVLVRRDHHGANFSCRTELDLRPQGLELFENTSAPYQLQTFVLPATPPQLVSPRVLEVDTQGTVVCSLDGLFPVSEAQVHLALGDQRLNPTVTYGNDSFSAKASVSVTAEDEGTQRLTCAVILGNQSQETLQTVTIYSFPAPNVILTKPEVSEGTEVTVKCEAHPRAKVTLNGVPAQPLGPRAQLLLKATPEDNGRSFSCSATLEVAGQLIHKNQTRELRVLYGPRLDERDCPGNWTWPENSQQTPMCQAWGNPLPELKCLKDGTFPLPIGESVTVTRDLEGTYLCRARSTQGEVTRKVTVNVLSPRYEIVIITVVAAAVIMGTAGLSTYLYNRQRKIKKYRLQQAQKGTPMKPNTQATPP
T2 sequence (P05107 whole entry, one chain of several): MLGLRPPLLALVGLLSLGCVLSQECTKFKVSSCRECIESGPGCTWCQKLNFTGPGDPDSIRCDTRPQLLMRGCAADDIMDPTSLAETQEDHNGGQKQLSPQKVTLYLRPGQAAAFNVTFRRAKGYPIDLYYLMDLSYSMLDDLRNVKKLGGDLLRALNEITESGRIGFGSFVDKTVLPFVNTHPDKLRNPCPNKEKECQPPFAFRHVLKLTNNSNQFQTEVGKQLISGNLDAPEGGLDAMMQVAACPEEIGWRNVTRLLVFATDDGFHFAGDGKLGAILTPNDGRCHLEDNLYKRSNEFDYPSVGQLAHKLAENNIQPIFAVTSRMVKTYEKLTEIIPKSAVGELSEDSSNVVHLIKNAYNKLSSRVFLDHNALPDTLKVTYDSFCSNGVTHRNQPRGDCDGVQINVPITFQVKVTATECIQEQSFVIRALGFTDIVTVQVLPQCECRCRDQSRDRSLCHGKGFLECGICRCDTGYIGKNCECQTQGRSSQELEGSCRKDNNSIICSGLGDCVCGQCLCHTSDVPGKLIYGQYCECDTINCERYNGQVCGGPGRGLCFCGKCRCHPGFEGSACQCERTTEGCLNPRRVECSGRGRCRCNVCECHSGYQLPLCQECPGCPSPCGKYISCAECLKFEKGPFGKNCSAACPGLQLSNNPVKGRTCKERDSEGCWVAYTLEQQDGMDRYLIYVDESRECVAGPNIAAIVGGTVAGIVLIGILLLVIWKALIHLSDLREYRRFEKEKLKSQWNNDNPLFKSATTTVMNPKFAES

For the compound `O=C(O)C1CCN(C(=O)/C=C/c2ccc(Sc3ccc4c(c3)OCCO4)c3ccccc23)CC1`, half-maximal inhibition on Integrin alpha-L [1] (IC50) required 295 nM.
Take `COc1ccccc1Sc1ccc(/C=C/C(=O)N2CCOCC2)cc1Cl`: the IC50 is 150 nM at Integrin alpha-L [2] and 40 nM in assay [3].
Turning to `Cn1ccc2cc(Sc3ccc(/C=C/C(=O)N4CCC(C(=O)O)CC4)c(C(F)(F)F)c3C(F)(F)F)ccc21`, the IC50 (on Integrin alpha-L [4]; in assay [5]) was 5 nM throughout.
On to `O=C(O)C1CCN(C(=O)/C=C/c2ccc(Sc3ccc4c(c3)OCCO4)c(C(F)(F)F)c2C(F)(F)F)CC1`, for which the IC50 at Integrin alpha-L [6] is 3 nM; in assay [7], 0.5 nM.
